Source: US20230242499A1, “COMPOUND OR SALT THEREOF, COMPOSITION, CHEMILU[…], METHOD FOR MEASURING CHEMILU[…], REAGENT, REAGENT KIT, AND METHOD FOR ASSAYING ANALYTE” (SYSMEX CORPORATION, priority 2022, published 2023)

Legend:
alkaline phosphatase = assay: Test Example 2: chemiluminescence intensity versus amount of alkaline phosphatase, limit of detection; assay type: biochemical; details: 42° C., 5 minutes incubation
Procedure: A solution of 1,2-dioxetane derivative (Examples 1 to 4) in dimethyl sulfoxide was added to 155 μL of the reaction liquid, and the mixture was kept at 42° C. for one hour. Twenty μL of a solution containing alkaline phosphatase was added, the mixture was incubated at 42° C. for 5 minutes, and then the chemiluminescence intensity was measured. The reaction liquid used herein was a 2: 1 mixture of a buffer solution (pH 9.6) that contains magnesium chloride and Sapphire-II™ Enhancer (from Thermo Fischer Scientific Inc.), and HISCL R4 reagent (from Sysmex Corporation). In Example 3, two types of sample were prepared, a sample (S(+)) with Sapphire-II™ Enhancer added thereto, and a sample […] without such additive.

[1] = Test Example 3: maximum emission wavelength by spectrofluorometer; assay type: physicochemical; details: after several hours under the conditions of Test Example 1; spectrofluorometer F-7000
Procedure: After a lapse of several hours under the conditions of Test Example 1, the samples were measured with use of a spectrofluorometer F-7000 (from Hitachi High-Tech Science Corporation), to find maximum emission wavelength.

[2] = buffer pH 9.6 with magnesium chloride and Sapphire-II Enhancer added (S (+)), HISCL R4 reagent

Q: Which “LOD (zmol)” value (alkaline phosphatase; [2]) does the source give for COC1(c2ccc(C#Cc3ccc(C(=O)O)cc3)c(OP(=O)(O)O)c2)OOC12C1CC3CC2CC(Cl)(C3)C1 (stereo not drawn) [Example 1] here?
A: 10 zmol

Q: What about the “Maximum emission wavelength (nm)” value [1] of the same molecule?
A: 498 nm

Q: Which results are given for C#Cc1ccc(C2(OC)OOC23C2CC4CC3CC(Cl)(C4)C2)cc1OP(=O)(O)O (stereo not drawn) [Example 2]?
A: LOD (zmol) (alkaline phosphatase; [2]): 4 zmol; Maximum emission wavelength (nm) [1]: 468 nm

Q: What does the source list for COC1(c2ccc(C#CC(=O)O)c(OP(=O)(O)O)c2)OOC12C1CC3CC2CC(Cl)(C3)C1 (stereo not drawn) [Example 3]?
A: LOD (zmol) (alkaline phosphatase; Sapphire-II Enhancer not added (S (−))): 1 zmol; LOD (zmol) (alkaline phosphatase; [2]): 7 zmol; Maximum emission wavelength (nm) [1]: 475 nm

Q: What does the source list for COC1(c2ccc(-c3ccc(C(=O)O)cc3)c(OP(=O)(O)O)c2)OOC12C1CC3CC2CC(Cl)(C3)C1 (stereo not drawn) [Example 4]?
A: LOD (zmol) (alkaline phosphatase; [2]): 100 zmol; Maximum emission wavelength (nm) [1]: 493 nm
